This passage reports IC50 and Activity results from ChEMBL document CHEMBL1154550, “Isolation of psammaplin A 11'-sulfate and bisaprasin 11'-sulfate from the marine sponge Aplysinella rhax” (J Nat Prod, 2000).

pIC50: −log10 of the molar value. Active and inactive are the calls of the source. The rule behind the calls is not given here.

The target in one experiment is T1, Adenosine receptor A1 (Rattus norvegicus, UniProt P25099).
T1 sequence (P25099 whole entry): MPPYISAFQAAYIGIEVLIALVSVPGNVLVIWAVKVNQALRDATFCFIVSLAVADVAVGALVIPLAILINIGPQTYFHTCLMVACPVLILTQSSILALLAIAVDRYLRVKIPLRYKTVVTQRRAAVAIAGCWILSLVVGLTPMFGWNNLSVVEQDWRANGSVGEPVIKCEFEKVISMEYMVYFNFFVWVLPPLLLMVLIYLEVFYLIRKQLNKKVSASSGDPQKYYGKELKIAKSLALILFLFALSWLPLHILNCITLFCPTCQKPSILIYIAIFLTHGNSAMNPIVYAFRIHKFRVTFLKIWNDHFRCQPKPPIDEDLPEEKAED
Briefly: Displacement of […] from adenosine A1 receptor in rat brain. The format is tissue-based.

Experiment [1] deals with T2, Adenosine receptor A1 (Rattus norvegicus) (UniProt P25099).
T2 sequence (whole entry): T1 sequence (P25099 whole entry)
Briefly: Displacement of […] from adenosine A1 receptor in rat brain up to 2.2 mM. The format is tissue-based.

On Adenosine receptor A1, `O=C(NCCSSCCNC(=O)/C(Cc1ccc(OS(=O)(=O)O)c(Br)c1)=N/O)/C(Cc1ccc(O)c(Br)c1)=N/O` gave a pIC50 of 4.05.

Regarding `O=C(NCCSSCCNC(=O)/C(Cc1cc(Br)c(O)c(-c2cc(C/C(=N\O)C(=O)NCCSSCCNC(=O)/C(Cc3ccc(OS(=O)(=O)O)c(Br)c3)=N/O)cc(Br)c2O)c1)=N/O)/C(Cc1ccc(O)c(Br)c1)=N/O`, the outcome in experiment [1] was inactive.

In turn, `O=C(NCCSSCCNC(=O)/C(Cc1ccc(O)c(Br)c1)=N/O)/C(Cc1ccc(O)c(Br)c1)=N/O` [PSAMMAPLIN A] had a negative-log IC50 (pIC50) at Adenosine receptor A1 of 4.70.
